The text below walks through data of article PMC6988736 (Bioorganic & medicinal chemistry letters, 2017).

SMILES strings stand for the structures. Read-outs that look alike come from different tables or passages of the source.

The target of experiment [1] is T1, hTRPV1 (Homo sapiens, UniProt Q8NER1). Briefly: hTRPV1 antagonism, inhibition of activation by capsaicin. The class given is cell-based. The conditions noted are these: for hTRPV1 antagonism toward capsaicin (in words): hTRPV1 in CHO cells, capsaicin 100 nM; for inhibition at 5 µM: CHO, read-out: inhibition% at 5 μM.
The target of experiment [2] is T1, hTRPV1. The conditions noted are these: read-out: heat 45 °C, IC50; hTRPV1, activator heat 45 °C; previous lead; ref [9]; cited from earlier work.
The target in experiment [3] is T1, hTRPV1. Briefly: hTRPV1 antagonism, activation by heat. The class given is cell-based.

T1 sequence (Q8NER1 whole entry): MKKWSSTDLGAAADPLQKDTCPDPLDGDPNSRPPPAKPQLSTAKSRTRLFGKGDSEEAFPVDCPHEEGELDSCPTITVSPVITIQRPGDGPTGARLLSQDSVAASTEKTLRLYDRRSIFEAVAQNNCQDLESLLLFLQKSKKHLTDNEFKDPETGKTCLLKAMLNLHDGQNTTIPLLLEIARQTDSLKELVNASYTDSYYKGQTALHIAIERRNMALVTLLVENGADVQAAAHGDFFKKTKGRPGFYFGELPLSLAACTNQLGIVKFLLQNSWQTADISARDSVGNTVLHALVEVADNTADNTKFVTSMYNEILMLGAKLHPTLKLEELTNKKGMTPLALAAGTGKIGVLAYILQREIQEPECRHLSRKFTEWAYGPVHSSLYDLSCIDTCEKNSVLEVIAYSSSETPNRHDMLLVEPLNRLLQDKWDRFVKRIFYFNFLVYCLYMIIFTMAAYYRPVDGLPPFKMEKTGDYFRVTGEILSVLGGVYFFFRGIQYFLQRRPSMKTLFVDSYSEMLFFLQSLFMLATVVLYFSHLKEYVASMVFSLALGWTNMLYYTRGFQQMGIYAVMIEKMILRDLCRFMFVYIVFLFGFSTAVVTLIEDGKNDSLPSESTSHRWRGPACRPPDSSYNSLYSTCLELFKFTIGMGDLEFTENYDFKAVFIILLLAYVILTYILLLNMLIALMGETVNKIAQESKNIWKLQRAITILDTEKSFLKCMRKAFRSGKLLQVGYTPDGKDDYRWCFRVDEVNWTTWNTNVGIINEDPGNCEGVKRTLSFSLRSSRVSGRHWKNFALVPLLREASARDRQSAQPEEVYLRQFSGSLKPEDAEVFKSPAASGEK

As to `CC(C(=O)NCc1cc(C(C)(C)C)nn1-c1ccc(F)c(Cl)c1)c1ccc(NS(C)(=O)=O)c(F)c1` (stereo not shown) [Compound 14], on hTRPV1 [1], the “hTRPV1 antagonism toward capsaicin (in words)” value is recorded as “high potency”.
Still for that read-out and setting: the same measure for `COc1ccc(-n2nc(C(C)(C)C)cc2CNC(=O)C(C)c2ccc(NS(C)(=O)=O)c(F)c2)cc1` (stereo not shown) [Compound 9]: “dramatic reduction in activity”; for `C[C@H](C(=O)NCc1cc(C(C)(C)C)nn1-c1ccc(F)c(Cl)c1)c1ccc(NS(C)(=O)=O)c(F)c1` [Compound 14S]: “high potency”.
One may read the inhibition as the relative decrease from the control value, in per cent. For `CC(C)(C)c1cc(CNC(=O)C(c2cccc(F)c2)c2ccc(NS(C)(=O)=O)c(F)c2)n(-c2cccc(Cl)c2)n1` (stereo not shown) [Compound 19], the inhibition at 5 µM on hTRPV1 [1] came to 49%.
In the case of `Cc1ccc(/C=C/c2ccc(-n3nc(C(C)(C)C)cc3CNC(=O)C(C)c3ccc(NS(C)(=O)=O)c(F)c3)cc2)cc1` (stereo not shown) [Compound 12], the “hTRPV1 antagonism toward capsaicin (in words)” value on hTRPV1 [1] is reported as “dramatic reduction in activity”.
With `CC(C(=O)NCc1cc(C(C)(C)C)nn1-c1ccc(C(C)(C)C)cc1)c1ccc(NS(C)(=O)=O)c(F)c1` (stereo not shown) [Compound 11], on hTRPV1 [1], the “hTRPV1 antagonism toward capsaicin (in words)” value is given as “dramatic reduction in activity”.
Take `Cc1ccc(C(C(=O)NCc2cc(C(C)(C)C)nn2-c2cccc(Cl)c2)c2ccc(NS(C)(=O)=O)c(F)c2)cc1` (stereo not shown) [Compound 18]: the inhibition at 5 µM at hTRPV1 [1] is 12%.
As a reminder, the IC50 is the point on the concentration scale where inhibition reaches its midpoint. Regarding `CC1CCN(c2nc(C(F)(F)F)ccc2CNC(=O)[C@@H](C)c2ccc(NS(C)(=O)=O)c(F)c2)CC1` [GRT12360], on hTRPV1 [2], the half-maximal inhibitory concentration (IC50) was 0.8 nM.
For the molecule `C[C@H](C(=O)NCc1cc(C(C)(C)C)nn1-c1cccc(Cl)c1)c1ccc(NS(C)(=O)=O)c(F)c1` [Compound 13S], the concentration for half-maximal inhibition (IC50) on hTRPV1 [3] was above 5000 nM.
`CC(C)(C)c1cc(CNC(=O)C(c2ccc(NS(C)(=O)=O)c(F)c2)C2CCCCC2)n(-c2cccc(Cl)c2)n1` (stereo not shown) [Compound 17]: the inhibition at 5 µM at hTRPV1 [1] was 46%.
